Measurements: patent publication US7326698B2, “Prostaglandin analogs” (Allergan, Inc., priority 2004, dated 2008)

How the values were obtained:
hEP4/Gqs5 = molecular target: T1, hEP4/Gqs5 (Homo sapiens, UniProt P35408); assay: FLIPR calcium signal, HEK-293(EBNA) cells; format: cell-based; settings: read-out: Functional Data (EC50 in nM) hEP4
T1 construct: expressed in transfected cells; host or cells: HEK-293(EBNA)
Procedure: (§1) Methods for FLIPR™ Studies
(§2) HEK-293(EBNA) cells, stably expressing one type or subtype of recombinant human prostaglandin receptors (prostaglandin receptors expressed: hDP/Gqs5; hEP1; hEP2/Gqs5; hEP3A/Gqi5; hEP4/Gqs5; hFP; hIP; hTP), are cultured in 100 mm culture dishes in high-glucose DMEM medium containing 10% fetal bovine serum, 2 mM 1-glutamine, 250 μg/ml geneticin (G418) and 200 μg/ml hygromycin B as selection markers, and 100 units/ml penicillin G, 100 μg/ml streptomycin and 0.25 μg/ml amphotericin B.
(§3) (b) Calcium Signal Studies On the FLIPR™
(§4) Cells are seeded at a density of 5×10^4 cells per well in Biocoat® Poly-D-lysine-coated black-wall, clear-bottom 96-well plates (Becton-Dickinson) and allowed to attach overnight in an incubator at 37° C. Cells are then washed two times with HBSS-HEPES buffer (Hanks Balanced Salt Solution without bicarbonate and phenol red, 20 mM HEPES, pH 7.4) using a Denley Cellwash plate washer (Labsystems). After 45 minutes of dye-loading in the dark, using the calcium-sensitive dye Fluo-4 AM at a final concentration of 2 μM, plates are washed four times with HBSS-HEPES buffer to remove excess dye leaving 100 μl in each well. Plates are re-equilibrated to 37° C. for a few minutes.
(§5) Cells are excited with an Argon laser at 488 nm, and emission is measured through a 510-570 nm bandwidth emission filter (FLIPR™, Molecular Devices, Sunnyvale, Calif.). Drug solution is added in a 50 μl volume to each well to give the desired final concentration. The peak increase in fluorescence intensity is recorded for each well. On each plate, four wells each serve as negative (HBSS-HEPES buffer) and positive controls (standard agonists: BW245C (hDP); PGE2 (hEP1; hEP2/Gqs5; hEP3A/Gqi5; hEP4/Gqs5); PGF2α, (hFP); carbacyclin (hIP); U-46619 (hTP), depending on receptor). The peak fluorescence change in each drug-containing well is then expressed relative to the controls.
(§6) Compounds are tested in a high-throughput (HTS) or concentration-response (CoRe) format. In the HTS format, forty-four compounds per plate are examined in duplicates at a concentration of 10^−5 M. To generate concentration-response curves, four compounds per plate are tested in duplicates in a concentration range between 10^−5 and 10^−11 M. The duplicate values are averaged. In either, HTS or CoRe format each compound is tested on at least 3 separate plates using cells from different passages to give an n≧3.

hTP = molecular target: T2, hTP (Homo sapiens, UniProt P21731); assay: FLIPR calcium signal, HEK-293(EBNA) cells; format: cell-based; settings: read-out: Functional Data (EC50 in nM) hTP
T2 construct: expressed in transfected cells; host or cells: HEK-293(EBNA)
T2 sequence (P21731 1-343): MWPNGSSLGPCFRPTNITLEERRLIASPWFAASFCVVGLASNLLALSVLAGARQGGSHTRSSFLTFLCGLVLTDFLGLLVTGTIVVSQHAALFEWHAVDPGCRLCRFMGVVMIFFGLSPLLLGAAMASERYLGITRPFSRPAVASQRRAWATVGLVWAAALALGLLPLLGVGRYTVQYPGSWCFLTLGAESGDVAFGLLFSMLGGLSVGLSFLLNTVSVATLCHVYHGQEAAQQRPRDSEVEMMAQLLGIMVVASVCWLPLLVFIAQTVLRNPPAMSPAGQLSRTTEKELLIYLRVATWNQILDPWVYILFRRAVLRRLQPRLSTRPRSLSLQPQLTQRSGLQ
Procedure: as §1, §2, §3, §4, §5, §6

hIP = molecular target: T3, hIP (Homo sapiens, UniProt P43119); assay: FLIPR calcium signal, HEK-293(EBNA) cells; format: cell-based; settings: read-out: Functional Data (EC50 in nM) hIP
T3 construct: expressed in transfected cells; host or cells: HEK-293(EBNA)
Procedure: as §1, §2, §3, §4, §5, §6

hEP3A/Gqi5 = molecular target: T4, hEP3A/Gqi5 (Homo sapiens, UniProt P43115); assay: FLIPR calcium signal, HEK-293(EBNA) cells; format: cell-based; settings: read-out: Functional Data (EC50 in nM) hEP3A
T4 construct: expressed in transfected cells; host or cells: HEK-293(EBNA)
T4 sequence (P43115 1-390): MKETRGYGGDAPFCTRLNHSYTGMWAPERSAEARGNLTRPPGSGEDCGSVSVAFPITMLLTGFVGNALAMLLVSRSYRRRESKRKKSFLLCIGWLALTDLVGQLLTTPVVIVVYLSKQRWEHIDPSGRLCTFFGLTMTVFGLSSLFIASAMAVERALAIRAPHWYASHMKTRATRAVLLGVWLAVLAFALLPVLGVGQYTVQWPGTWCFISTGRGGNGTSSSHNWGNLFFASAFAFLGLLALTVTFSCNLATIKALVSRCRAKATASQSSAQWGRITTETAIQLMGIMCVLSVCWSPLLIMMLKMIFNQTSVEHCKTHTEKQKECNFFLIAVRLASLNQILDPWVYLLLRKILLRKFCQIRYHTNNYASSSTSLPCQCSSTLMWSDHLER
Procedure: as §1, §2, §3, §4, §5, §6

hEP4 = molecular target: T5, hEP4 (Homo sapiens, UniProt P35408); assay: Radioligand binding, HEK-293 cells stably expressing EP4 receptor; settings: competition vs 5 nM [3H]-PGE2
T5 construct: expressed in transfected cells; host or cells: HEK-293 (membrane fraction)
Procedure: Cells Stably Expressing EP1, EP2, EP4 and FP Receptors
HEK-293 cells stably expressing the human or feline FP receptor, or EP1, EP2, or EP4 receptors are washed with TME buffer, scraped from the bottom of the flasks, and homogenized for 30 sec using a Brinkman PT 10/35 polytron. TME buffer is added to achieve a final 40 ml volume in the centrifuge tubes (the composition of TME is 100 mM TRIS base, 20 mM MgCl2, […]; 10N HCl is added to achieve a pH of 7.4).
The cell homogenate is centrifuged at 19000 r.p.m. for 20 min at 4° C. using a Beckman Ti-60 rotor. The resultant pellet is resuspended in TME buffer to give a final 1 mg/ml protein concentration, as determined by Biorad assay. Radioligand binding competition assays vs. [^3H-]17-phenyl PGF2[…](5 nM) are performed in a 100 μl volume for 60 min. Binding reactions are started by adding plasma membrane fraction. The reaction is terminated by the addition of 4 ml ice-cold TRIS-HCl buffer and rapid filtration through glass fiber GF/B filters using a Brandel cell harvester. The filters are washed 3 times with ice-cold buffer and oven dried for one hour.
[^3H-] PGE2 (specific activity 180 Ci mmol) is used as the radioligand for EP receptors. [^3H] 17-phenyl PGF2[…]is employed for FP receptor binding studies. […] 17-phenyl PGF2[…]and non-specific binding determined with 10^−5M of unlabeled PGE2, or 17-phenyl PGF2[…], according to receptor subtype studied.

T1 sequence (P35408 whole entry): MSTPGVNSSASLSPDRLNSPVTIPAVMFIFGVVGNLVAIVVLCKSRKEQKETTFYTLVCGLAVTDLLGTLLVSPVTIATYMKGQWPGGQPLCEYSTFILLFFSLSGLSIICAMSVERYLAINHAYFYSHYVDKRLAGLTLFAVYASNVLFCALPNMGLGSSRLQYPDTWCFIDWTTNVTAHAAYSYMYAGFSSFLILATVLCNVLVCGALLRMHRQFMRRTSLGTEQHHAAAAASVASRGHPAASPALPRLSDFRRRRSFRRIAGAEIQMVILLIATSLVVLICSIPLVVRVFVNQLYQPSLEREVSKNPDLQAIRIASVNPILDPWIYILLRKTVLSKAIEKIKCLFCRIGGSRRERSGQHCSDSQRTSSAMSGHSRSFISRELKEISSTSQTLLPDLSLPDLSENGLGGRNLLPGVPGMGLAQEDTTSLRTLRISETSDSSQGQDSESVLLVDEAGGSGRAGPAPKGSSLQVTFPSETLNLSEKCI
T5 sequence (P35408 whole entry): as above
T3 sequence (P43119 whole entry): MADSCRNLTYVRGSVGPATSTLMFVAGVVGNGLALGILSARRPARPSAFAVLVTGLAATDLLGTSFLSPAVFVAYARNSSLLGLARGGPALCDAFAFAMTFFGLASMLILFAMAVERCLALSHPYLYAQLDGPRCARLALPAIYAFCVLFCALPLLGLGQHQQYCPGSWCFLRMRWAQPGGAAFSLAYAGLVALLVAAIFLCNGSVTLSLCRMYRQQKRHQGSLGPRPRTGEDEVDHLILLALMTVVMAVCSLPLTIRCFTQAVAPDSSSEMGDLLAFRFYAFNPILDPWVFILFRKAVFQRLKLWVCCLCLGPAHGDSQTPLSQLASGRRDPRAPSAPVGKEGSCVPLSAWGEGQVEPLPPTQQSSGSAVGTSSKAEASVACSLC

Structure (SMILES)	EC50 (hEP4/Gqs5) [nM]	other results
O=C(O)CCCC#CCN1C(=O)CCCCC1CCC(=O)Cc1ccccc1 (centres unmarked)	2390	EC50 (hTP): 41 nM
O=C(O)CCCCCCN1C(=O)CCCCC1C=CC(O)Cc1ccccc1 (centres unmarked)	> 10000	–
COC(=O)CCCCCCN1C(=O)CCCCC1C=CC(=O)Cc1ccccc1 (centres unmarked)	> 10000	–
O=C(O)CCC/C=C\CN1C(=O)CCCCC1C=CC(O)Cc1ccccc1 (centres unmarked)	266	EC50 (hTP): 221 nM
O=C(O)CCCC#CCN1C(=O)CCCCC1CCC(O)Cc1ccccc1 (centres unmarked)	2000	EC50 (hTP): 112 nM
O=C(O)CCCCCCN1C(=O)CCCCC1CCC(O)Cc1ccccc1 (centres unmarked)	451	EC50 (hIP): 1640 nM; EC50 (hTP): 549 nM
COC(=O)CCC/C=C\CN1C(=O)CCCCC1C=CC(O)Cc1ccccc1 (centres unmarked)	> 10000	–
COC(=O)CCCC#CCN1C(=O)CCCCC1CCC(O)Cc1ccccc1 (centres unmarked)	> 10000	–
COC(=O)CCCCCCN1C(=O)CCCCC1CCC(O)Cc1ccccc1 (centres unmarked)	3280	EC50 (hEP3A/Gqi5): > 10000 nM
O=C(O)CCCC#CCN1C(=O)CCCCC1C=CC(=O)Cc1ccccc1 (centres unmarked)	> 10000	–
COC(=O)CCC/C=C\CN1C(=O)CCCCC1CCC(=O)Cc1ccccc1 (centres unmarked)	13300	IC50 (hEP4): > 10 µM
COC(=O)CCC/C=C\CN1C(=O)CCCCC1CCC(O)Cc1ccccc1 (centres unmarked)	2140	–
O=C(O)CCC/C=C\CN1C(=O)CCCCC1CCC(O)Cc1ccccc1 (centres unmarked)	116	IC50 (hEP4): > 10 µM
COC(=O)CCCCCCN1C(=O)CCCCC1C=CC(O)Cc1ccccc1 (centres unmarked) [drawing 40]	> 10000	–
O=C(O)CCCCCCN1C(=O)CCCCC1C=CC(=O)Cc1ccccc1 (centres unmarked)	> 10000	–
COC(=O)CCCC#CCN1C(=O)CCCCC1C=CC(O)Cc1ccccc1 (centres unmarked)	3080	–
O=C(O)CCCCCCN1C(=O)CCCCC1CCC(=O)Cc1ccccc1 (centres unmarked)	> 10000	–
O=C(O)CCCC#CCN1C(=O)CCCCC1C=CC(O)Cc1ccccc1 (centres unmarked)	1230	EC50 (hTP): 278 nM
COC(=O)CCCC#CCN1C(=O)CCCCC1C=CC(=O)Cc1ccccc1 (centres unmarked)	> 10000	–
COC(=O)CCCCCCN1C(=O)CCCCC1C=CC(O)Cc1ccccc1 (centres unmarked) [drawing 36]	> 10000	–
COC(=O)CCCCCCN1C(=O)CCCCC1CCC(=O)Cc1ccccc1 (centres unmarked)	> 10000	–
O=C(O)CCC/C=C\CN1C(=O)CCCCC1CCC(=O)Cc1ccccc1 (centres unmarked)	> 10000	–
COC(=O)CCCC#CCN1C(=O)CCCCC1CCC(=O)Cc1ccccc1 (centres unmarked)	> 10000	–
